Experimental findings from patent US12528786B2, “Plasma kallikrein inhibitors” (Merck Sharp & Dohme LLC, priority 2020, dated 2026) are described below.

This experiment addresses T1, Human plasma kallikrein (Homo sapiens, UniProt P03952).
T1 construct: yields a heavy chain (371 amino acids) and a light chain (248 amino acids); purchased Enzyme Research Laboratories
Description: Kallikrein Assay (fluorogenic substrate hydrolysis, AFC release). The format is biochemical. The note with it: purified Human plasma kallikrein 0.5 nM; substrate Acetyl-K—P—R-AFC 100 mM; 50 mM HEPES pH 7.4. Put shortly: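 Enzyme–inhibitor equilibrated before substrate dilution to ≤0.2 Km; human plasma kallikrein at 0.5 nM final, Acetyl-K-P-R-AFC substrate, HEPES pH 7.4 buffer with NaCl, CaCl2, PEG 8000, at room temperature or 37° C. Linear-phase fluorescence rate gives percent inhibition, four-parameter logistic IC50, then Cheng-Prusoff Ki.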

pIC50: −log10 of the molar value.

For orientation: pIC50 means the negative decadic logarithm of the IC50, by convention in mol/L. Low values mean a high IC50, high ones a low IC50.

T1 sequence (P03952 391-638 limits assumed): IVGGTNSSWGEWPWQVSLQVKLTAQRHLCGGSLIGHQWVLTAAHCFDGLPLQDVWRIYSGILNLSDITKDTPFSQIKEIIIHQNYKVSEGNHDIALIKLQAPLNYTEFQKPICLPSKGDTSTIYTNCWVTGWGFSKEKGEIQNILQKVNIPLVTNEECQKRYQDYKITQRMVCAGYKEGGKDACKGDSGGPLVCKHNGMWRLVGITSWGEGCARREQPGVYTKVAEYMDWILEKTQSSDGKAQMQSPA
T1 sequence (P03952 20-390 partner limits assumed): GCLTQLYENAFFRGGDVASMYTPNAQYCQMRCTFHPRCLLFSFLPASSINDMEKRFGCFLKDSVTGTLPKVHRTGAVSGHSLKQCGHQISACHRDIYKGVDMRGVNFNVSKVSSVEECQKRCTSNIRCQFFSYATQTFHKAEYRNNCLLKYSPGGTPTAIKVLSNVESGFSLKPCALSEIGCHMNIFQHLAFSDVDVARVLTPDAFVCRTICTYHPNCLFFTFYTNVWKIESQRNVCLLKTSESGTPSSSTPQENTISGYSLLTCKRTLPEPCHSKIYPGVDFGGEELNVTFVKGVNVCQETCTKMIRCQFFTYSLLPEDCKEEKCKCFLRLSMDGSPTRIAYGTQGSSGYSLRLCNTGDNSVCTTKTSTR

The molecule `Cc1cc(N2C[C@H]3C[C@H]3C2=O)ncc1C(C)n1cc(C(=O)N[C@H]2C[C@@](C)(c3cc(Cl)ccc3C#N)C2)nn1` (single isomer, unassigned) [Example 65, N-((cis)-3-(5-chloro-2-cyanophenyl)-3-methylcyclobutyl)-1-((S or R)-1-(4-methyl-6-((1R,5S)-2-oxo-3-azabicyclo[3.1.0]hexan-3-yl)pyridin-3-yl)ethyl)-1H-1,2,3-triazole-4-carboxamide] had a pIC50 of 9.52.
For `Cc1ccc(C#N)c([C@H]2C[C@@H](NC(=O)c3cn(C(C)c4cnc(N5C[C@H]6C[C@H]6C5=O)cc4C)nn3)C2)c1` (single isomer, unassigned) [Example 66, N-((cis)-3-(2-cyano-5-methylphenyl)cyclobutyl)-1-((R or S)-1-(4-methyl-6-((1R,5S)-2-oxo-3-azabicyclo[3.1.0]hexan-3-yl)pyridin-3-yl)ethyl)-1H-1,2,3-triazole-4-carboxamide] the value was 7.20; for `Cc1ccc(C#N)c([C@H]2C[C@@H](NC(=O)c3cn(C(C)c4cnc(N5C[C@H]6C[C@H]6C5=O)cc4C)nn3)C2)c1` (single isomer, unassigned) [Example 67, N-((cis)-3-(2-cyano-5-methylphenyl)cyclobutyl)-1-((S or R)-1-(4-methyl-6-((1R,5S)-2-oxo-3-azabicyclo[3.1.0]hexan-3-yl)pyridin-3-yl)ethyl)-1H-1,2,3-triazole-4-carboxamide], 8.77.
As for `Cc1ccc(C#N)c([C@H]2C[C@@H](NC(=O)c3cn(C(C)c4cnc(N5C[C@H]6C[C@H]6C5=O)cc4C)nn3)C2)n1` (single isomer, unassigned) [Example 68, N-((cis)-3-(3-cyano-6-methylpyridin-2-yl)cyclobutyl)-1-((R or S)-1-(4-methyl-6-((1R,5S)-2-oxo-3-azabicyclo[3.1.0]hexan-3-yl)pyridin-3-yl)ethyl)-1H-1,2,3-triazole-4-carboxamide], the figure is 8.72; as for `Cc1cc(N2C[C@H]3C[C@H]3C2=O)ncc1C(C)n1cc(C(=O)N[C@H]2C[C@@H](c3cc(Cl)ccc3OC(F)F)C2)nn1` (single isomer, unassigned) [Example 69, N-((cis)-3-(5-chloro-2-(difluoromethoxy)phenyl)cyclobutyl)-1-((R or S)-1-(4-methyl-6-((1R,5S)-2-oxo-3-azabicyclo[3.1.0]hexan-3-yl)pyridin-3-yl)ethyl)-1H-1,2,3-triazole-4-carboxamide], 5.55.
As for `Cc1cc(N2C[C@H]3C[C@H]3C2=O)ncc1C(C)n1cc(C(=O)N[C@H]2C[C@@H](c3cc(Cl)ccc3OC(F)F)C2)nn1` (single isomer, unassigned) [Example 70, N-((cis)-3-(5-chloro-2-(difluoromethoxy)phenyl)cyclobutyl)-1-((S or R)-1-(4-methyl-6-((1R,5S)-2-oxo-3-azabicyclo[3.1.0]hexan-3-yl)pyridin-3-yl)ethyl)-1H-1,2,3-triazole-4-carboxamide], the figure is 7.84.
Take `Cc1cc(N2C[C@H]3C[C@H]3C2=O)ncc1C(C)n1cc(C(=O)N[C@H]2C[C@@H](c3cc(Cl)ccc3C(F)F)C2)nn1` (single isomer, unassigned) [Example 71, N-((cis)-3-(5-chloro-2-(difluoromethyl)phenyl)cyclobutyl)-1-((R or S)-1-(4-methyl-6-((1R,5S)-2-oxo-3-azabicyclo[3.1.0]hexan-3-yl)pyridin-3-yl)ethyl)-1H-1,2,3-triazole-4-carboxamide]: the pIC50 is 7.90.
For `Cc1cc(N2C[C@H]3C[C@H]3C2=O)ncc1C(C)n1cc(C(=O)N[C@H]2C[C@@H](c3cc(Cl)ccc3C(F)F)C2)nn1` (single isomer, unassigned) [Example 72, N-((cis)-3-(5-chloro-2-(difluoromethyl)phenyl)cyclobutyl)-1-((S or R)-1-(4-methyl-6-((1R,5S)-2-oxo-3-azabicyclo[3.1.0]hexan-3-yl)pyridin-3-yl)ethyl)-1H-1,2,3-triazole-4-carboxamide] the value was 5.00.
For `Cc1cc(N2C[C@H]3C[C@H]3C2=O)ncc1C(C)n1cc(C(=O)N[C@H]2C[C@@H](c3cc(Cl)ccn3)C2)nn1` (single isomer, unassigned) [Example 73, N-((cis)-3-(4-chloropyridin-2-yl)cyclobutyl)-1-((R or S)-1-(4-methyl-6-((1R,5S)-2-oxo-3-azabicyclo[3.1.0]hexan-3-yl)pyridin-3-yl)ethyl)-1H-1,2,3-triazole-4-carboxamide] the value was 6.97; for `Cc1cc(N2C[C@H]3C[C@H]3C2=O)ncc1C(C)n1cc(C(=O)N[C@H]2C[C@@H](c3cc(Cl)ccn3)C2)nn1` (single isomer, unassigned) [Example 74, N-((cis)-3-(4-chloropyridin-2-yl)cyclobutyl)-1-((S or R)-1-(4-methyl-6-((1R,5S)-2-oxo-3-azabicyclo[3.1.0]hexan-3-yl)pyridin-3-yl)ethyl)-1H-1,2,3-triazole-4-carboxamide], 8.41; for `Cc1cc(N2C[C@H]3C[C@H]3C2=O)ncc1C(C)n1cc(C(=O)N[C@H]2C[C@@](F)(c3cc(Cl)ccc3C#N)C2)nn1` (single isomer, unassigned) [Example 75, N-(cis)-3-(5-chloro-2-cyanophenyl)-3-fluorocyclobutyl)-1-((R or S)-1-(4-methyl-6-((1R,5S)-2-oxo-3-azabicyclo[3.1.0]hexan-3-yl)pyridin-3-yl)ethyl)-1H-1,2,3-triazole-4-carboxamide], 9.70.
`Cc1cc(N2C[C@H]3C[C@H]3C2=O)ncc1C(C)n1cc(C(=O)N[C@H]2C[C@@](F)(c3cc(Cl)ccc3C#N)C2)nn1` (single isomer, unassigned) [Example 76, N-(cis)-3-(5-chloro-2-cyanophenyl)-3-fluorocyclobutyl)-1-((S or R)-1-(4-methyl-6-((1R,5S)-2-oxo-3-azabicyclo[3.1.0]hexan-3-yl)pyridin-3-yl)ethyl)-1H-1,2,3-triazole-4-carboxamide] had a negative-log IC50 (pIC50) of 7.80.
As for `C[C@H](c1cnc(N2C[C@H]3C[C@H]3C2=O)nc1)n1cc(C(=O)N[C@H]2C[C@@H](c3cc(Cl)ccc3C#N)C2)nn1` (single isomer, unassigned) [Example 77], the figure is 8.09.
For `CC(c1cnc(N2C[C@H]3C[C@H]3C2=O)nc1)n1cc(C(=O)N[C@H]2C[C@@H](c3cc(Cl)ccc3C#N)C2)nn1` (single isomer, unassigned) [Example 78] the value was 7.38.
For `Cc1nc(N2C[C@H]3C[C@H]3C2=O)ncc1C(C)n1cc(C(=O)N[C@H]2C[C@@H](c3cc(Cl)ccc3C#N)C2)nn1` (single isomer, unassigned) [Example 80, N-((cis)-3-(5-chloro-2-cyanophenyl)cyclobutyl)-1-((R or S)-1-(4-methyl-2-((1R,5S)-2-oxo-3-azabicyclo[3.1.0]hexan-3-yl)pyrimidin-5-yl)ethyl)-1H-1,2,3-triazole-4-carboxamide] the value was 6.98.
For `Cc1nc(N2C[C@H]3C[C@H]3C2=O)ncc1C(C)n1cc(C(=O)N[C@H]2C[C@@H](c3cc(Cl)ccc3C#N)C2)nn1` (single isomer, unassigned) [Example 81, N-((cis)-3-(5-chloro-2-cyanophenyl)cyclobutyl)-1-((S or R)-1-(4-methyl-2-((1R,5S)-2-oxo-3-azabicyclo[3.1.0]hexan-3-yl)pyrimidin-5-yl)ethyl)-1H-1,2,3-triazole-4-carboxamide], the pIC50 was 8.72.
